Legend:
[1] = Hygroscopicity by dynamic vapor sorption (DVS); type: physicochemical; settings: 25° C./80% RH
Protocol: The hygroscopicity of the crystal forms B and C was evaluated by a dynamic vapor sorption (DVS) instrument. The test collected the percentage change in the mass of the samples when the humidity changed (60% RH-95% RH-0% RH-95% RH or 0% RH-95% RH-0% RH) at a constant temperature of 25° C., wherein for the crystal form C, the test started at ambient humidity (about 60% RH), and for the crystal form B, the test started at 0% relative humidity (0% RH). The test results are shown in FIGS. 12 and 13, respectively.

[2] = Solid stability without protection (XRPD, UPLC); type: physicochemical
Protocol: For the compounds used in this experiment, the crystal form B was obtained from Example 3, and the crystal form C was obtained from Example 5
The crystal forms B and C were placed at 25° C./60% RH and 40° C./75% RH without any protection, and then the physical and chemical stabilities thereof were tested by XRPD and UPLC, respectively.

[3] = Variable-temperature / heating XRPD test; type: physicochemical
Protocol: (initial temperature). […] In order to study the TGA weight loss of the crystal form B, a variable-temperature XRPD test was performed. […] (some diffraction peaks shifted at 120° C., and it is speculated that the shift may be caused by lattice expansion at high temperature). Therefore, it is speculated that the free base crystal form B is an anhydrous crystal form.
(peak temperatures). The sample was heated to 120° C. and cooled to room temperature, and then an XRPD test was performed. […] Based on the fact of crystal transformation of the sample upon heating in combination with the stepwise weight loss of the TGA, it is speculated that the crystal form C is a monohydrate.

[4] = Stability, long-term experiment 3; type: physicochemical; settings: 2° C.-8° C.
Protocol: The compounds used in this experiment were obtained from Example 4. Examination conditions: 2° C.-8° C. Packaging: the inner packaging material is a double-layer medicinal low-density polyethylene bag, and the outer packaging material is a polyester/aluminum/polyethylene medicinal composite bag. In particular, the analysis method of purity is as follows: [table]

[5] = Stability, long-term experiment 1; type: physicochemical; settings: 25° C.±2° C., 60% RH±5% RH
Protocol: The compounds used in this experiment were obtained from Example 4. Examination conditions: 25° C.±2° C., 60% RH±5% RH. Packaging: the inner packaging material is a double-layer medicinal low-density polyethylene bag, and the outer packaging material is a polyester/aluminum/polyethylene medicinal composite bag. In particular, the analysis method of purity is as follows: [table]

[6] = Stability, accelerated experiment; type: physicochemical; settings: 40° C.±2° C., 75% RH±5% RH
Protocol: The compounds used in this experiment were obtained from Example 4. Examination conditions: 40° C.±2° C., 75% RH±5% RH. Packaging: the inner packaging material is a double-layer medicinal low-density polyethylene bag, and the outer packaging material is a polyester/aluminum/polyethylene medicinal composite bag. In particular, the analysis method of purity is as follows: [table]

[7] = Stability, long-term experiment 2; type: physicochemical; settings: 30° C.±2° C., 65% RH±5% RH
Protocol: The compounds used in this experiment were obtained from Example 4. Examination conditions: 30° C.±2° C., 65% RH±5% RH. Packaging: the inner packaging material is a double-layer medicinal low-density polyethylene bag, and the outer packaging material is a polyester/aluminum/polyethylene medicinal composite bag. In particular, the analysis method of purity is as follows: [table]

[8] = Pharmacokinetic test in rats; type: in vivo, SD rats; settings: rat, intragastric administration 3 mg/kg
Protocol: 1.1 Experimental animals: male SD rats, about 220 g, 6-8 weeks old, 6 rats/compound. Purchased from Chengdu Ddossy Experimental Animals Co., Ltd.
1.2 Experimental design: on the day of the experiment, 6 SD rats were randomly grouped according to their body weights. The animals were fasted with water available for 12 to 14 h one day before the administration and were fed 4 h after the administration.
Vehicle for intravenous administration: 5% DMA+5% Solutol+90% Saline; vehicle for intragastric administration: 0.5% MC; control compound INS1007, namely compound 2 in patent WO 2015110826A1, was prepared with reference to the method of the patent.
Before and after the administration, 0.1 ml of blood was taken from the orbit of the animals under isoflurane anesthesia and placed in an EDTAK2 centrifuge tube. The blood was centrifuged at 5000 rpm and 4° C. for 10 min to collect the plasma. Blood sampling time points for the intravenous administration group: 0, 5 min, 15 min, 30 min, 1 h, 2 h, 4 h, 6 h, 8 h, and 24 h; and blood sampling time points for the intragastric administration group: 0, 5 min, 15 min, 30 min, 1 h, 2 h, 4 h, 6 h, 8 h, and 24 h. Before analysis and detection, all samples were stored at −80° C.

In the case of `Cn1c(=O)oc2ccc(-c3ccc(C[C@@H](C#N)NC(=O)[C@@H]4CNCCCO4)c(F)c3)cc21` [Crystal form C], the Moisture sorption [1] is reported as 0.97%, the Crystal form change ([2]; 25° C./60% RH, 1 week) is reported as “No” and the Purity ([2]; 25° C./60% RH, 1 week) is reported as 99.70. The Crystal form change ([2]; 40° C./75% RH, 1 week) was “No”, the Purity ([2]; 40° C./75% RH, 1 week) was 99.71 and the Purity ([2]; initial value) was 99.87. For the same compound, the “Crystal form change upon heating (XRPD)” value ([3]; heated to 120° C. and cooled to room temperature) was “transformed into the crystal form B”.
For `Cn1c(=O)oc2ccc(-c3ccc(C[C@@H](C#N)NC(=O)[C@@H]4CNCCCO4)c(F)c3)cc21` [Crystal form B], the Content ([4]; month 0) was 100.5%, the Crystal form ([4]; month 0) was “form B” and the Moisture ([4]; month 0) was 0.2%. The Purity ([4]; month 0) was 99.93%, the Content ([4]; month 3) was 100.5% and the Crystal form ([4]; month 3) was “form B”. It also gave a Moisture ([4]; month 3) of 0.3%, a Purity ([4]; month 3) of 99.87% and a Content ([4]; month 6) of 100.0%. For the same compound, the Crystal form ([4]; month 6) was “form B”, the Moisture ([4]; month 6) was 0.3% and the Purity ([4]; month 6) was 99.89%. For the same compound, the Content ([4]; month 9) was 101.6%, the Crystal form ([4]; month 9) was “form B” and the Moisture ([4]; month 9) was 0.2%. The Purity ([4]; month 9) was 99.89%, the Content ([4]; month 12) was 101.0% and the Crystal form ([4]; month 12) was “form B”. It also gave a Moisture ([4]; month 12) of 0.2%, a Purity ([4]; month 12) of 99.89% and a Content ([5]; month 0) of 100.5%. The Crystal form ([5]; month 0) was “form B”, the Moisture ([5]; month 0) was 0.2% and the Purity ([5]; month 0) was 99.93%. For the same compound, the Content ([5]; month 3) was 100.6%, the Crystal form ([5]; month 3) was “form B” and the Moisture ([5]; month 3) was 0.3%. For the same compound, the Purity ([5]; month 3) was 99.87%, the Content ([5]; month 6) was 100.7% and the Crystal form ([5]; month 6) was “form B”. It also gave a Moisture ([5]; month 6) of 0.2%, a Purity ([5]; month 6) of 99.90% and a Content ([5]; month 9) of 101.6%. For the same compound, the Crystal form ([5]; month 9) was “form B”, the Moisture ([5]; month 9) was 0.1% and the Purity ([5]; month 9) was 99.89%. For the same compound, the Content ([5]; month 12) was 99.5%, the Crystal form ([5]; month 12) was “form B” and the Moisture ([5]; month 12) was 0.2%. It also gave a Purity ([5]; month 12) of 99.88%, a Moisture sorption [1] of 0.19% and a Content ([6]; month 0) of 100.5%. The Crystal form ([6]; month 0) was “form B”, the Moisture ([6]; month 0) was 0.2% and the Purity ([6]; month 0) was 99.93%. For the same compound, the Content ([6]; month 1) was 100.4%, the Crystal form ([6]; month 1) was “form B” and the Moisture ([6]; month 1) was 0.3%. For the same compound, the Purity ([6]; month 1) was 99.87%, the Content ([6]; month 2) was 101.1% and the Crystal form ([6]; month 2) was “form B”. For the same compound, the Moisture ([6]; month 2) was 0.2%, the Purity ([6]; month 2) was 99.88% and the Content ([6]; month 3) was 100.1%. The Crystal form ([6]; month 3) was “form B”, the Moisture ([6]; month 3) was 0.2% and the Purity ([6]; month 3) was 99.87%. For the same compound, the Content ([6]; month 6) was 101.3%, the Crystal form ([6]; month 6) was “form B” and the Moisture ([6]; month 6) was 0.2%. For the same compound, the Purity ([6]; month 6) was 99.88%, the Crystal form change ([2]; 25° C./60% RH, 1 month) was “No” and the Purity ([2]; 25° C./60% RH, 1 month) was 99.76. For the same compound, the Crystal form change ([2]; 25° C./60% RH, 1 week) was “No”, the Purity ([2]; 25° C./60% RH, 1 week) was 99.74 and the Purity ([2]; 25° C./60% RH, 3 weeks) was 99.74. For the same compound, the Crystal form change ([2]; 40° C./75% RH, 1 month) was “No”, the Purity ([2]; 40° C./75% RH, 1 month) was 99.63 and the Crystal form change ([2]; 40° C./75% RH, 1 week) was “No”. The Purity ([2]; 40° C./75% RH, 1 week) was 99.65, the Purity ([2]; 40° C./75% RH, 3 weeks) was 99.57 and the Purity ([2]; initial value) was 99.86. For the same compound, the Content ([7]; month 0) was 100.5%, the Crystal form ([7]; month 0) was “form B” and the Moisture ([7]; month 0) was 0.2%. For the same compound, the Purity ([7]; month 0) was 99.93%, the Content ([7]; month 3) was 100.6% and the Crystal form ([7]; month 3) was “form B”. For the same compound, the Moisture ([7]; month 3) was 0.3%, the Purity ([7]; month 3) was 99.87% and the Content ([7]; month 6) was 101.6%. The Crystal form ([7]; month 6) was “form B”, the Moisture ([7]; month 6) was 0.2% and the Purity ([7]; month 6) was 99.90%. The Content ([7]; month 9) was 100.7%, the Crystal form ([7]; month 9) was “form B” and the Moisture ([7]; month 9) was 0.1%. For the same compound, the Purity ([7]; month 9) was 99.90%, the Content ([7]; month 12) was 99.2% and the Crystal form ([7]; month 12) was “form B”. For the same compound, the Moisture ([7]; month 12) was 0.2%, the Purity ([7]; month 12) was 99.89% and the “Crystal form change in variable-temperature XRPD” value ([3]; purged with nitrogen for 20 minutes, heated to 120° C., or cooled to 30° C.) was “did not change”.
With `Cn1c(=O)oc2ccc(-c3ccc(C[C@@H](C#N)NC(=O)[C@@H]4CNCCCO4)c(F)c3)cc21` [Compound I, (S)—N—((S)-1-cyano-2-(2-fluoro-4-(3-methyl-2-oxo-2,3-dihydrobenzo[d]oxazol-5-yl)phenyl)ethyl)-1,4-oxazepane-2-carboxamide] the F [8] was greater than 100%.
`Cn1c(=O)oc2ccc(-c3ccc(C[C@@H](C#N)NC(=O)[C@@H]4CNCCCO4)cc3)cc21` [INS1007, reference compound] showed an F [8] of 88.1%.
